Measurements: PubChem BioAssay (NCI)
Values joined by “and” are separate entries in the source; they are usually repeats but may differ in a detail not shown here. Equal entries are not always repeated.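 Grown in 96-well plates, cells were treated for 48 hours with each compound at five concentrations. Insufficient inhibition: endpoint recorded as highest concentration tested. Abbreviation: GI50, concentration required for 50% inhibition of growth. TGI marks complete inhibition of growth.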

Tests used:
Test in all cases: NCI-60 cell line screen, 48 h
[1] = system: SK-MEL-28 melanoma
[2] = system: HCC-2998 colon
[3] = system: UACC-62 melanoma
[4] = system: HCT-15 colon
[5] = system: ACHN renal
[6] = system: M14 melanoma
[7] = system: T-47D breast
[8] = system: HCT-116 colon
[9] = system: SNB-75 CNS
[10] = system: EKVX NSCLC
[11] = system: K-562 leukemia
[12] = system: MDA-MB-231 breast
[13] = system: HOP-62 NSCLC
[14] = system: A549 NSCLC
[15] = system: OVCAR-4 ovarian
[16] = system: KM12 colon
[17] = system: IGROV1 ovarian
[18] = system: CCRF-CEM leukemia
[19] = system: SF-268 CNS
[20] = system: HL-60(TB) leukemia
[21] = system: MDA-MB-435
[22] = system: HS 578T breast
[23] = system: SW-620 colon
[24] = system: NCI-H522 lung
[25] = system: OVCAR-3 ovarian
[26] = system: SNB-19 CNS
[27] = system: SF-539 CNS
[28] = system: HT29 colon
[29] = system: RPMI-8226 leukemia
[30] = system: OVCAR-5 ovarian
[31] = system: MOLT-4 leukemia
[32] = system: SK-MEL-5 melanoma
[33] = system: BT-549 breast
[34] = system: RXF 393 renal
[35] = system: NCI-H23 lung
[36] = system: LOX IMVI melanoma
[37] = system: U251 CNS
[38] = system: CAKI-1 renal
[39] = system: NCI/ADR-RES ovarian
[40] = system: A498 renal
[41] = system: UACC-257 melanoma
[42] = system: SK-MEL-2 melanoma
[43] = system: 786-0 renal
[44] = system: DU-145 prostate
[45] = system: HOP-92 NSCLC
[46] = system: MALME-3M melanoma
[47] = system: UO-31 renal
[48] = system: OVCAR-8 ovarian
[49] = system: SN12C renal
[50] = system: NCI-H226 lung
[51] = system: COLO 205 colon
[52] = system: PC-3 prostate
[53] = system: MCF7 breast
[54] = system: SF-295 CNS
[55] = system: TK-10 renal
[56] = system: NCI-H460 lung
[57] = system: SR leukemia
[58] = system: SK-OV-3 ovarian

Structure (SMILES): C=CC(=O)N1CCN(c2ncnc3c(F)c(-c4c(O)cccc4F)c(Cl)cc23)CC1
- GI50 [1]: 13.3 µM
- TGI [1]: 26 µM
- GI50 [2]: 17.5 µM
- TGI [2]: 32.7 µM
- GI50 [3]: 9.36 µM
- TGI [3]: 22.1 µM
- GI50 [4]: 10 µM
- TGI [4]: 27 µM
- GI50 [5]: 4.84 µM
- TGI [5]: 17.7 µM
- GI50 [6]: 12.6 µM
- TGI [6]: 28.9 µM
- GI50 [7]: 10.2 µM
- TGI [7]: 42.9 µM
- GI50 [8]: 9.19 µM
- TGI [8]: 23.1 µM
- GI50 [9]: 7.54 µM
- TGI [9]: 22.6 µM
- GI50 [10]: 15.1 µM
- TGI [10]: 28.9 µM
- GI50 [11]: 21.2 µM
- TGI [11]: > 100 µM
- GI50 [12]: 14.3 µM
- TGI [12]: 35.9 µM
- GI50 [13]: 0.211 µM
- TGI [13]: 20.7 µM
- GI50 [14]: 18 µM
- TGI [14]: 40.7 µM
- GI50 [15]: 14.9 µM
- TGI [15]: 43.4 µM
- GI50 [16]: 11.7 µM
- TGI [16]: 28 µM
- GI50 [17]: 11.6 µM
- TGI [17]: 24.8 µM
- GI50 [18]: 9.79 µM
- TGI [18]: > 100 µM
- GI50 [19]: 11.5 µM
- TGI [19]: 37.2 µM
- GI50 [20]: 6.76 µM
- TGI [20]: 45.6 µM
- GI50 [21]: 10.3 µM
- TGI [21]: 23.9 µM
- GI50 [22]: 19 µM
- TGI [22]: 66.4 µM
- GI50 [23]: 14 µM
- TGI [23]: 31.9 µM
- GI50 [24]: 15.6 µM
- TGI [24]: 35.1 µM
- GI50 [25]: 9.02 µM
- TGI [25]: 23.5 µM
- GI50 [26]: 14 µM
- TGI [26]: 27.3 µM
- GI50 [27]: 7.48 µM
- TGI [27]: 20.5 µM
- GI50 [28]: 25 µM
- TGI [28]: 77.7 µM
- GI50 [29]: 5.69 µM
- TGI [29]: 36.6 µM
- GI50 [30]: 18.4 µM
- TGI [30]: 34.1 µM
- GI50 [31]: 7.04 µM
- TGI [31]: 56.9 µM
- GI50 [32]: 13.6 µM
- TGI [32]: 26.5 µM
- GI50 [33]: 3.87 µM
- TGI [33]: 17.3 µM
- GI50 [34]: 2.27 µM
- TGI [34]: 14.7 µM
- GI50 [35]: 0.43 µM
- TGI [35]: 15.9 µM
- GI50 [36]: 12.6 µM
- TGI [36]: 31 µM
- GI50 [37]: 13.2 µM
- TGI [37]: 46.8 µM
- GI50 [38]: 12.6 µM
- TGI [38]: 25.8 µM
- GI50 [39]: 22.1 µM
- TGI [39]: 76.1 µM
- GI50 [40]: 5.45 µM
- TGI [40]: 19.1 µM
- GI50 [41]: 14.4 µM
- TGI [41]: 30.4 µM
- GI50 [42]: 15 µM
- TGI [42]: 35 µM
- GI50 [43]: 11.4 µM
- TGI [43]: 25.4 µM
- GI50 [44]: 10.6 µM
- TGI [44]: 23.6 µM
- GI50 [45]: 12.8 µM
- TGI [45]: 33.6 µM
- GI50 [46]: 11.5 µM
- TGI [46]: 24.8 µM
- GI50 [47]: 14.7 µM
- TGI [47]: 29 µM
- GI50 [48]: 19.3 µM
- TGI [48]: 67 µM
- GI50 [49]: 13.9 µM
- TGI [49]: 31.3 µM
- GI50 [50]: 17 µM
- TGI [50]: 46.2 µM
- GI50 [51]: 17.5 µM
- TGI [51]: 37.5 µM
- GI50 [52]: 7.29 µM
- TGI [52]: 30.3 µM
- GI50 [53]: 9.68 µM
- TGI [53]: 29.3 µM
- GI50 [54]: 15.2 µM
- TGI [54]: 35.3 µM
- GI50 [55]: 16.1 µM
- TGI [55]: 43.4 µM
- GI50 [56]: 14.8 µM
- TGI [56]: 33.5 µM

Structure (SMILES): CC(=O)O[C@H]1C(=O)[C@@]2(C)[C@H]([C@H](OC(=O)c3ccccc3)[C@]3([O-])C[C@H](OC(=O)[C@H]([O-])[C@@H](NC(=O)c4ccccc4)c4ccccc4)C(C)=C1C3(C)C)[C@]1(OC(C)=O)CO[C@@H]1C[C@@H]2[O-].[Fe+3]
- GI50 [1]: 13.2 µM
- TGI [1]: 64.8 µM
- GI50 [2]: 0.0365 µM
- TGI [2]: 0.295 µM
- GI50 [3]: 0.238 µM and 0.0875 µM
- TGI [3]: 65 µM and 15.8 µM
- GI50 [4]: 1.97 µM and 2.33 µM
- TGI [4]: 16.2 µM and 17 µM
- GI50 [5]: 2.48 µM and 2.96 µM
- TGI [5]: 65 µM and > 100 µM
- GI50 [6]: 0.11 µM and 0.0637 µM
- TGI [6]: 0.491 µM and 0.391 µM
- GI50 [7]: 0.0802 µM and 0.0744 µM
- TGI [7]: 65 µM and 95.7 µM
- GI50 [8]: 0.0253 µM and 0.0388 µM
- GI50 [9]: 0.0222 µM and 0.023 µM
- TGI [9]: 0.274 µM and 0.505 µM
- TGI [10]: 65 µM and > 100 µM
- GI50 [11]: 0.0839 µM and 0.0988 µM
- TGI [11]: 65 µM and > 100 µM
- GI50 [12]: 0.746 µM and 0.732 µM
- TGI [12]: 63.9 µM and 32.2 µM
- TGI [13]: 10.5 µM and 48.8 µM
- GI50 [14]: 0.0335 µM and 0.0852 µM
- TGI [14]: 65 µM and > 100 µM
- GI50 [57]: 0.0268 µM and 0.199 µM
- GI50 [15]: 0.719 µM
- TGI [15]: > 100 µM
- GI50 [16]: 0.0324 µM and 0.0623 µM
- TGI [16]: 0.21 µM and 1.21 µM
- GI50 [17]: 0.0426 µM and 0.211 µM
- TGI [17]: 65 µM and 72.5 µM
- GI50 [18]: 0.249 µM and 0.876 µM
- TGI [18]: 65 µM and 68.9 µM
- GI50 [19]: 0.104 µM and 0.165 µM
- TGI [19]: 45.3 µM and > 100 µM
- GI50 [20]: 0.0639 µM
- TGI [20]: 0.301 µM
- GI50 [22]: 0.0562 µM and 0.141 µM
- GI50 [23]: 0.0352 µM and 0.0664 µM
- TGI [23]: 19.2 µM and 47.4 µM
- GI50 [24]: 0.0385 µM
- TGI [24]: 12.8 µM
- GI50 [25]: 0.0215 µM and 0.0434 µM
- GI50 [26]: 0.281 µM and 0.534 µM
- TGI [26]: 65 µM and > 100 µM
- GI50 [27]: 0.029 µM and 0.0519 µM
- TGI [27]: 0.549 µM and 0.486 µM
- GI50 [28]: 0.0236 µM and 0.0328 µM
- GI50 [29]: 0.0294 µM and 0.074 µM
- TGI [29]: 65 µM and > 100 µM
- GI50 [30]: 0.88 µM
- TGI [30]: 11.1 µM and > 100 µM
- TGI [31]: 65 µM and > 100 µM
- GI50 [32]: 0.0521 µM and 0.0683 µM
- TGI [32]: 65 µM and 19.6 µM
- GI50 [33]: 0.309 µM
- GI50 [34]: 0.117 µM and 0.0955 µM
- GI50 [35]: 0.0685 µM and 0.164 µM
- TGI [35]: 65 µM and > 100 µM
- GI50 [36]: 0.0219 µM and 0.107 µM
- GI50 [58]: 0.0724 µM and 0.142 µM
- TGI [58]: 11.9 µM and > 100 µM
- GI50 [37]: 0.0357 µM and 0.0647 µM
- TGI [37]: 7.38 µM and 17.2 µM
- GI50 [38]: 2.41 µM and 3.53 µM
- TGI [38]: 54.5 µM and > 100 µM
- GI50 [39]: 19.2 µM
- TGI [39]: 15.9 µM and > 100 µM
- TGI [41]: 65 µM and > 100 µM
- GI50 [42]: 0.11 µM and 0.161 µM
- GI50 [43]: 0.261 µM and 2.24 µM
- TGI [43]: 49.1 µM and > 100 µM
- GI50 [44]: 0.068 µM and 0.0595 µM
- TGI [44]: 0.272 µM and 0.595 µM
- GI50 [45]: > 65 µM and 10.5 µM
- TGI [45]: > 65 µM and 35.7 µM
- GI50 [47]: 4.45 µM and 4.87 µM
- TGI [47]: 65 µM and > 100 µM
- GI50 [48]: 0.0971 µM and 0.0721 µM
- TGI [48]: 15.5 µM and 27.3 µM
- TGI [49]: 65 µM and > 100 µM
- GI50 [50]: 0.227 µM and 0.768 µM
- TGI [50]: 65 µM and 70.7 µM
- GI50 [51]: 0.0365 µM and 0.0432 µM
- TGI [51]: 0.226 µM and 0.508 µM
- GI50 [52]: 0.235 µM and 0.219 µM
- TGI [52]: 65 µM and > 100 µM
- GI50 [53]: 0.0226 µM and 0.0315 µM
- TGI [53]: 65 µM and 32.7 µM
- GI50 [54]: 0.0836 µM
- TGI [54]: > 100 µM
- GI50 [55]: 0.591 µM and 0.658 µM
- TGI [55]: 65 µM and > 100 µM
- GI50 [56]: 0.0266 µM and 0.0498 µM
- TGI [56]: 65 µM and 25.5 µM
